Values of other authors in US20230074252A1, “DOSAGES AND METHODS FOR TREATING PULMONARY ARTERIAL HYPERTENSION WITH RODATRISTAT” (Altavant Sciences GmbH, priority 2020, published 2023).

Experiments:
[1] = cited from earlier work; for Change in exposure on coadministration with clopidogrel: selexipag + clopidogrel (moderate inhibitor); for Increase in exposure (AUC) on coadministration with gemfibrozil: selexipag + gemfibrozil (strong CYP2C8 inhibitor); for Increase in exposure on coadministration with ritonavir: selexipag + ritonavir
prostacyclin receptor = prostacyclin receptor (Homo sapiens, UniProt P43119); details: cited from earlier work
CYP2C8 = molecular target: T1, CYP2C8 (Homo sapiens, UniProt P10632); details: literature; cited from earlier work
T1 sequence (P10632 1-490): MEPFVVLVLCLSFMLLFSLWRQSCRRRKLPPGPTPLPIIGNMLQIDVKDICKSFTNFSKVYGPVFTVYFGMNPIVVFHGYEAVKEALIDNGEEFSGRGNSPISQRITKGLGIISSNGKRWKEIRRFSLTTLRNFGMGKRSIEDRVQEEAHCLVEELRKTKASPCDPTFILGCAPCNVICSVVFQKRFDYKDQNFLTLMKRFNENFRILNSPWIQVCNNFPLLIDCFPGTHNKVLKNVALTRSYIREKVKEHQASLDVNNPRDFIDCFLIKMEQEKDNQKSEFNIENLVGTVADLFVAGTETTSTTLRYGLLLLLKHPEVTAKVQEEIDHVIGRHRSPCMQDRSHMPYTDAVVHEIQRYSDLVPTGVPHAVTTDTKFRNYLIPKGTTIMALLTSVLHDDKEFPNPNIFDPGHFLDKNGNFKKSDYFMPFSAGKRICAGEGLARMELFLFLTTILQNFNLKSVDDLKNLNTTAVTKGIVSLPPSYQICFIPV

[2] = oral; cited from earlier work
[3] = human, in vivo; cited from earlier work

Sequence of prostacyclin receptor (P43119 whole entry, species assumed): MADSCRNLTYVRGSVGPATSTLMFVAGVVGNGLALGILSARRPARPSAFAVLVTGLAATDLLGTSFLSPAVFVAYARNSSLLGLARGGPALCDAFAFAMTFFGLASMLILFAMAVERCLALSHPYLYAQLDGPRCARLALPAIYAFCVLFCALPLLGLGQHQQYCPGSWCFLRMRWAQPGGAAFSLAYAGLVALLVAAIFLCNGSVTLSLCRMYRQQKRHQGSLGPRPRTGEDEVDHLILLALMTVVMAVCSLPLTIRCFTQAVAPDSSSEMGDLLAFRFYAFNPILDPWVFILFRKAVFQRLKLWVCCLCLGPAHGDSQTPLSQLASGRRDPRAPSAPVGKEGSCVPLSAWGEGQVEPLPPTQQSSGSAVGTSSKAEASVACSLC

Row | SMILES | Change in exposure on coadministration with clopidogrel [1] | Increase in exposure (AUC) on coadministration with gemfibrozil [1] [fold] | Increase in exposure on coadministration with ritonavir [1] [fold] | other results
1 | CC(C)N(CCCCOCC(=O)NS(C)(=O)=O)c1cnc(-c2ccccc2)c(-c2ccccc2)n1 [selexipag] | did not impact | 2 | ~2 | 
2 | CC(C)N(CCCCOCC(=O)O)c1cnc(-c2ccccc2)c(-c2ccccc2)n1 [ACT-333679] | 2.7 fold | 11 | < 2 | Potency relative to selexipag (prostacyclin receptor): approximately 37 fold
3 | O=C1Nc2ccc(Cl)cc2[C@@](C#CC2CC2)(C(F)(F)F)O1 [efavirenz] |  |  |  | IC50 (CYP2C8): 4.8 µM
4 | CCCCC[C@H](O)CC[C@@H]1[C@H]2Cc3cccc(OCC(=O)O)c3C[C@H]2C[C@H]1O.[Na+] [treprostinil, (1R,2R,3aS,9aS)-[[2,3,3a,4,9,9a-Hexahydro-2-hydroxy-1-[(3S)-3-hydroxyoctyl]-1Hbenz[f]inden-5-yl]oxy]acetic acid monosodium salt] |  |  |  | Bioavailability [2]: ~17%; Increase in AUC on coadministration with gemfibrozil [3]: ~2 fold; Increase in Cmax on coadministration with gemfibrozil [3]: ~2 fold
